Reference: patent publication US20120319032A1, “Biodegradable, Frost Proof Heat-Transfer Fluid, Use Thereof In Near-Surface Geothermal Installations, And A Concentrate For Preparing Same” (priority 2010, published 2012)
Like-named read-outs stand apart in the source and are kept apart here.

Columns and labels:
[1] = 301D; 28 d; Research report 200 24 233 UBA-FB 000298; cited from earlier work
[2] = 302B; 28 d; Research report 200 24 233 UBA-FB 000298; cited from earlier work
[3] = shown in studies (Geothermics 36 (2007) 348 - 361); cited from earlier work
[4] = OECD 301A, manufacturer safety data sheet, cited from earlier work
[5] = Biodegradability, test method OECD 301 B; conditions: in-house measurement
Method: The biodegradability of the inventive composition and constituents thereof is determined according to the OECD Guidelines for Testing of Chemicals 301 and 311.
The corrosion inhibitor or, if more than one corrosion inhibitor is used, all corrosion inhibitors used have good biodegradability (are “readily degradable”) according to the respectively applicable test method OECD 301 A (for water-soluble corrosion inhibitors) or OECD 301 B (for sparingly water-soluble corrosion inhibitors), each in the version dated Jul. 17, 1992. Good biodegradability is defined in point 10 of OECD 301.

[6] = OECD 301B, manufacturer safety data sheet, cited from earlier work

Compound: c1ccc2[nH]nnc2c1 [Benzotriazole]
- Degradability [1]: 0% (28 d)
- Degradability [2]: 12% (28 d)

Compound: OCCO [ethylene glycol]
- Biodegradability [3]: good

Compound: CC(O)CO (centres unmarked) [1,2-propylene glycol]
- Biodegradability [3]: good
- Degradability ([4]; duration not given): >70%
- Assessment of degradability [4]: good

Compound: O=C(O)CCCCCCCCC(=O)O [Inhibitor C, sebacic acid]
- Degradability ([5]; 25 d): >80% (25 d)
- Assessment of degradability [5]: good

Compound: CC(C)CCCCCC(=O)NCCCCCC(=O)O [Inhibitor X]
- Degradability ([6]; 15 d): >90% (15 d)
- Assessment of degradability [6]: good

Compound: CCCCC(CC)C(=O)O (centres unmarked) [Inhibitor B, 2-ethylhexanoic acid]
- Degradability ([6]; 25 d): approx. 90%
- Assessment of degradability [6]: good

Compound: CC(C)CCCCCC(=O)O [Inhibitor A, isononanoic acid]
- Degradability ([6]; 25 d): approx. 63%
- Assessment of degradability [6]: moderately
